Source: patent publication US9464326B2, “Total and phosphorylated IL-1 receptor-associated kinase-1 and IL-1 receptor-associated kinase-4 as a biomarker for cancer progression and chemotherapy resistance” (University of Maryland, Baltimore, priority 2012, dated 2016)

Tests used:
A375 melanoma cells = experiment: Apoptosis by annexin-V/PI flow cytometry in A375; type: cell-based, human
Protocol: FIG. 8. IRAK-1,-4 inhibition sensitized melanoma cells to vinblastine-mediated cytotoxicity. (A) A375 and Malme-3M melanoma cells were cultured with or without 2.5 μM of IRAK-1,-4 and in the presence varying concentrations of vinblastine, cisplatin or 5′ Fluorouracil. Forty-eight hours later apoptosis was evaluated by staining cells with annexin-V and propidium iodide and analyzed by flow cytometry. (B) A375 cells were transfected via electroporation with siRNA-IRAK-1,-4. IRAK-1 protein levels were examined by Western blotting. […], A375-psiRNA-hIRAK-1, A375-psiRNA-hIRAK-4, or cells expressing both psiRNA-hIRAK-1 and -4 were cultured in the presence of vinblastine (100 nmol/L) for 48 hours and apoptosis was examined by flow cytometry. (C) A375 melanoma cells were cultured in the presence of vehicle alone (DMSO) or various concentrations of IRAK-1,-4. Forty-eight hours later cell lysates were used to analyze the expression of levels of cleaved PARP or caspase-3 by Western blots. (D) A375 melanoma cells were cultured with or without 2.5 μM of IRAK.-1,-4 and in the presence or absence of vinblastine for 48 hrs. PARP and caspase-3 levels were determined by Western blot.
FIG. 20. Role of TLR-induced cytokines and NF-kB on cell survival. […] The percentage of apoptotic cells was measured by staining cells with Annexin and PI 48 hours later and analyzed by flow cytometry. […] After 48 hours, apoptosis was measured by flow cytometry. […] Apoptosis was measured 48 hours later by flow cytometry.
The TLR1-TLR2 ligand tripalmitoyl-S-(bis(palmitoyloxy)propyl)-Cys-Ser-(Lys)3-Lys (Pam3Cys) was purchased from Invivogen (San Diego, Calif., USA). […] In some experiments cells were treated with the indicated concentrations of IRAK.-1,-4 inhibitor and vinblastine, cisplatin, and 5-fluorouracil (Sigma-Aldrich, St. Louis, Mo.), and apoptosis was quantitated by flow cytometry after staining cells with FITC-labeled annexin-V (BD Pharmingen, San Jose, Calif.) and propidium iodide (PI; Sigma-Aldrich).

Hut 102 = experiment: Proliferation (3H-thymidine) of Hut 102; type: cell-based, human; settings: 3H-thymidine uptake, 72 h
From the text: CCRF-CEM, CEM/C1, CEM/C2, CEM-C7, Jurkat, Loucy, Molt-4, HSB-2, SUP-T1, Hut 78, HH, Hut 102, MO, and H9 T-leukemia and T-lymphoma cell lines were purchased from the American Type Culture Collection (Manassas, Va., USA). All of the cell lines were initially expanded and cryopreserved within one month of receipt. Cells were typically used for 6 months at which time a fresh vial of cryopreserved cells was used. Total T cells from healthy donors were isolated via negative selection followed by positive selection using a CD3+ selection kit (Invitrogen, Carlsbad, Calif.). T cells were isolated from patients with T-ALL bone marrow or peripheral blood samples containing more than 70% leukemia cells using a CD2+ isolation kit (STEMCELL Technologies, Vancouver, Canada). All tissues were collected under institutional IRB-approved protocols and all participants gave written informed assent/consent. For in vitro experiments, T-ALL cells were cultured in AIM-V medium supplemented with 20% human AB serum in the presence of recombinant human stem cell factor (50 ng/mL; Amgen, Thousand Oaks, Calif.), insulin (20 nM; Sigma-Aldrich, St Louis, Mo., USA) and IL-7 (50 ng/mL; R&D Systems, Minneapolis, Minn., USA). […]
Cells were cultured in a 96-well plate (Corning Costar, Corning, N.Y., USA) with various concentrations of TLR ligands 1-9, starting at 10 μg/ml, in a final volume of 200 ul. […] After this time point, cells were harvested with a Packard Filter-Mate-96 cell harvester (Perkin Elmer, Waltham, Mass., USA) and counted on Packard Top Count-NXT (Perkin Elmer, Waltham, Mass., USA). Results were expressed as average counts per minute (cpm). […] Forty-eight hours later, proliferation (±SD) was determined by ^3H-thymidine incorporation. Alternatively, apoptosis was measured by flow cytometry after staining cells with Annexin-V (BD Pharmingen, San Diego, Calif., USA) and propidium iodide (Sigma). Cell number was counted under microscopy by staining cells with trypan blue. […]

Compound	sensitivity to vinblastine (apoptosis) (A375 melanoma cells; 2.5 μmol/L IRAK-1,-4 inhibitor with 0-200 nmol/L vinblastine, 48 h)	cisplatin's cytotoxicity (A375 melanoma cells; IRAK-1,-4 inhibitor with 0-50 nmol/L cisplatin)	melanoma apoptosis (A375 melanoma cells; inhibitor alone, absence of vinblastine)	Proliferative effects of TLR ligands (Hut 102)
O=C(Nc1nc2ccccc2n1CCN1CCOCC1)c1cccc([N+](=O)[O-])c1 [IRAK-1,-4 inhibitor]	increased sensitivity	did not increase	moderately increased	–
tripalmitoyl-S-(bis(palmitoyloxy)propyl)-Cys-Ser-(Lys)3-Lys [Pam3Cysk4]	–	–	–	∘
